This data set in a line: HILIC, HILICON iHILIC-(P) Classic, HILIC, PEEK, 50 × 2.1 mm, 5 µm, 30 °C, 0.12 mL/min, estimated dead time 0.92 min; A: water + 20 mM ammonium carbonate + 10 mM ammonium hydroxide; B: acetonitrile; gradient (min/%B) 0/90 1/90 21/20 21.5/20 23.5/20 24.5/90 26/90 26.5/90. To be noted: stereoisomer not certain.
For the compound `CSCCC(N)C(=O)O` (stereo not drawn) [Methionine], the LC retention time was 5.98 min.

With `Nc1nc2c(ncn2C2OC(COP(=O)(O)OP(=O)(O)O)C(O)C2O)c(=O)[nH]1` (stereo not drawn) [GDP], the LC retention time was 14.8 min. In the case of `CC(=O)NC(CC(=O)O)C(=O)O` (stereo not drawn) [N-Acetylaspartic acid] it was 9.45 min; in that of `Nc1ncnc2nc[nH]c12` [Adenine], 3.45 min. As for `O=C(O)CC(O)(CC(=O)O)C(=O)O` [Citric acid], the LC retention time was 16.6 min. For `O=C(O)CC(C(=O)O)C(O)C(=O)O` (stereo not drawn) [Isocitric acid] the value was 16.1 min. In the case of `NC(Cc1ccccc1)C(=O)O` (stereo not drawn) [Phenylalanine] it was 5.17 min; in that of `Nc1ccn(C2OC(COP(=O)(O)O)C(O)C2O)c(=O)n1` (stereo not drawn) [CMP], 11.1 min. Regarding `O=c1ccn(C2OC(COP(=O)(O)OP(=O)(O)OP(=O)(O)O)C(O)C2O)c(=O)[nH]1` (stereo not drawn) [UTP], the LC retention time is 14.2 min. Consider `NC(CCC(=O)NC(CS)C(=O)NCC(=O)O)C(=O)O` (stereo not drawn) [GSH], for which the LC retention time is 8.79 min. `O=c1ccn(C2OC(COP(=O)(O)O)C(O)C2O)c(=O)[nH]1` (stereo not drawn) [UMP]: the LC retention time was 9.35 min. Consider `NC(=O)CCC(N)C(=O)O` (stereo not drawn) [Glutamine], for which the LC retention time was 8.38 min. For `Cc1ncc(C[n+]2csc(CCO)c2C)c(N)n1` [Thiamine] the value was 12.8 min. In the case of `Nc1ncnc2c1ncn2C1OC(COP(=O)(O)O)C(O)C1O` (stereo not drawn) [AMP] it was 8.72 min; in that of `NC(=O)C1=CN(C2OC(COP(=O)(O)OP(=O)(O)OCC3OC(n4cnc5c(N)ncnc54)C(O)C3O)C(O)C2O)C=CC1` (stereo not drawn) [NADH], 9.31 min. In the case of `NC(Cc1c[nH]c2ccccc12)C(=O)O` (stereo not drawn) [Tryptophan] it was 6.14 min; in that of `O=C(CO)COP(=O)(O)O` [Triose phosphate], 10.9 min. As to `Nc1ccn(C2OC(COP(=O)(O)OP(=O)(O)O)C(O)C2O)c(=O)n1` (stereo not drawn) [CDP], the LC retention time was 13.2 min. In the case of `CC(C)C(N)C(=O)O` (stereo not drawn) [Valine], the LC retention time was 6.3 min. For the compound `Nc1nc2ncc(CNc3ccc(C(=O)NC(CCC(=O)O)C(=O)O)cc3)nc2c(=O)[nH]1` (stereo not drawn) [Folic Acid], the LC retention time is 14.3 min. Regarding `NC(CO)C(=O)O` (stereo not drawn) [Serine], the LC retention time is 8.67 min.

Consider `CC(=O)NC1C(OP(=O)(O)OP(=O)(O)OCC2OC(n3ccc(=O)[nH]c3=O)C(O)C2O)OC(CO)C(O)C1O` (stereo not drawn) [UDP-GlcNAc], for which the LC retention time was 11.9 min.

For the compound `NC(CSSCC(N)C(=O)O)C(=O)O` (stereo not drawn) [Cystine], the LC retention time is 11.6 min. For `Nc1ncnc2c1ncn2C1OC(CO)C(O)C1O` (stereo not drawn) [Adenosine] the value was 3.59 min; for `O=C(O)CC(=O)O` [Malonic Acid], 9.18 min. As for `NC(Cc1ccc(O)cc1)C(=O)O` (stereo not drawn) [Tyrosine], the LC retention time was 6.96 min.

In the case of `NC(=O)C1=CN(C2OC(COP(=O)(O)OP(=O)(O)OCC3OC(n4cnc5c(N)ncnc54)C(OP(=O)(O)O)C3O)C(O)C2O)C=CC1` (stereo not drawn) [NADPH], the LC retention time is 16.9 min. `NC(CCC(=O)NC(CSSCC(NC(=O)CCC(N)C(=O)O)C(=O)NCC(=O)O)C(=O)NCC(=O)O)C(=O)O` (stereo not drawn) [GSSG]: the LC retention time was 15.4 min.

On to `Nc1nc2c(ncn2C2OC(CO)C(O)C2O)c(=O)[nH]1` (stereo not drawn) [Guanosine], for which the LC retention time is 6.51 min. Turning to `O=P(O)(O)OCC(O)CO` (stereo not drawn) [Glycerol-3-phosphate], the LC retention time was 10.9 min.

On to `CC(=O)SCCNC(=O)CCNC(=O)C(O)C(C)(C)COP(=O)(O)OP(=O)(O)OCC1OC(n2cnc3c(N)ncnc32)C(O)C1OP(=O)(O)O` (stereo not drawn) [Acetyl-CoA], for which the LC retention time was 8.53 min. In the case of `NC(=O)c1ccc[n+](C2OC(COP(=O)(O)OP(=O)(O)OCC3OC(n4cnc5c(N)ncnc54)C(OP(=O)(O)O)C3O)C(O)C2O)c1` (stereo not drawn) [NADP] it was 13.4 min; in that of `Nc1nc2c(ncn2C2OC(COP(=O)(O)O)C(O)C2O)c(=O)[nH]1` (stereo not drawn) [GMP], 14.2 min; in that of `O=C1OC(C(O)CO)C(O)=C1O` (stereo not drawn) [Ascorbic Acid], 9.17 min. In the case of `O=P(O)(O)OCC1OC(O)(COP(=O)(O)O)C(O)C1O` (stereo not drawn) [Fructose-1,6-bisphosphate], the LC retention time is 16 min. For the compound `C=C(OP(=O)(O)O)C(=O)O` [PEP], the LC retention time is 13.7 min. In the case of `O=C(O)CC(O)C(=O)O` (stereo not drawn) [Malic Acid] it was 12.9 min. For `NC(=O)CC(N)C(=O)O` (stereo not drawn) [Asparagine], the LC retention time was 10.7 min. As to `Nc1nc2c(ncn2C2OC(COP(=O)(O)OP(=O)(O)OP(=O)(O)O)C(O)C2O)c(=O)[nH]1` (stereo not drawn) [GTP], the LC retention time was 17 min.

With `O=c1ccn(C2OC(COP(=O)(O)OP(=O)(O)O)C(O)C2O)c(=O)[nH]1` (stereo not drawn) [UDP], the LC retention time is 12.3 min. In the case of `NC(=O)c1ccc[n+](C2OC(COP(=O)([O-])O)C(O)C2O)c1` (stereo not drawn) [NMN] it was 9.92 min; in that of `O=C(O)C(CO)OP(=O)(O)O` (stereo not drawn) [Phosphoglyceric acid A], 13.6 min. For `O=C(O)CCCCC1SCC2NC(=O)NC21` (stereo not drawn) [Biotin] the value was 3.27 min. For `O=C(O)CCC(=O)O` [Succinic Acid] the value was 11.6 min; for `CC(C)CC(N)C(=O)O` (stereo not drawn) [Leucine], 5.52 min; for `Nc1ncnc2c1ncn2C1OC(COP(=O)(O)OP(=O)(O)O)C(O)C1O` (stereo not drawn) [ADP], 12.3 min.

In the case of `NCCCCC(N)C(=O)O` (stereo not drawn) [Lysine], the LC retention time is 18.8 min. For `Nc1ccn(C2OC(CO)C(O)C2O)c(=O)n1` (stereo not drawn) [Cytidine] the value was 5.88 min; for `NC(=O)c1ccc[n+](C2OC(COP(=O)(O)OP(=O)(O)OCC3OC(n4cnc5c(N)ncnc54)C(O)C3O)C(O)C2O)c1` (stereo not drawn) [NAD], 9.03 min. For `CCC(C)C(N)C(=O)O` (stereo not drawn) [Isoleucine], the LC retention time was 5.8 min. In the case of `CC(O)C(N)C(=O)O` (stereo not drawn) [Threonine], the LC retention time was 8.21 min. In the case of `NC(CCC(=O)O)C(=O)O` (stereo not drawn) [Glutamic acid] it was 9.84 min; in that of `O=C(O)C1(O)CC(O)C(O)C(O)C1` (stereo not drawn) [Quinic Acid], 6.61 min; in that of `NCCCC(N)C(=O)O` (stereo not drawn) [Ornithine], 18.1 min.

For the compound `O=C(O)C1CCCN1` (stereo not drawn) [Proline], the LC retention time was 6.54 min. Consider `Nc1ncnc2c1ncn2C1OC(COP(=O)(O)OP(=O)(O)OP(=O)(O)O)C(O)C1O` (stereo not drawn) [ATP], for which the LC retention time was 13.5 min. In the case of `CC(O)C(=O)O` (stereo not drawn) [Lactic Acid] it was 3.24 min; in that of `O=C(O)c1cccnc1` [Nicotinic acid], 2.38 min.

The values are drawn from the RepoRT retention time repository.
